Patent US6509328B1, “Glutamate receptor antagonists” (Hoffmann-La Roche Inc., priority 1999, dated 2003)

| melting point | SMILES |
| --- | --- |
| 222 to 224 °C | Cc1cc(-c2cccc(C3=Nc4ccc(-c5ccccc5F)cc4NC(=O)C3)c2)on1 [Example 127, 8-(2-Fluoro-phenyl)-4-[3-(3-methyl-isoxazol-5-yl)-phenyl]-1,3-dihydro-benzo-[b][1,4]diazepin-2-one] |
| 187 °C | Cc1nccn1-c1cccc(C2=Nc3ccc(-c4ccccc4F)cc3NC(=O)C2)c1 [Example 81, 8-(2-Fluoro-phenyl)-4-[3-(2-methyl-imidazol-1-yl)-phenyl]-1,3-dihydro-benzo[b][1,4]diazepin-2-one] |
| 254 to 256 °C (dec.) | Cc1nnc(-c2cccc(C3=Nc4ccc(-c5ccc(F)cc5)cc4NC(=O)C3)c2)o1 [Example 165, 8-(4-Fluoro-phenyl)-4-[3-(5-methyl-[1,3,4]oxadiazol-2-yl)-phenyl]-1,3-dihydro-benzo[b][1,4]diazepin-2-one] |
| 210 to 217 °C (dec.) | Nc1cccc(C2=Nc3ccc(-c4ccc(F)cc4)cc3NC(=O)C2)c1 [Example 70, 4-(3-Amino-phenyl)-8-(4-fluoro-phenyl)-1,3-dihydro-benzo [b][1,4]diazepin-2-one] |
| 238 °C | N#Cc1cccc(C2=Nc3ccc(C#CC4=CCOCC4)cc3NC(=O)C2)c1 [Example 138, 3-[7-(3,6-Dihydro-2H-pyran-4-ylethynyl)-4-oxo-4,5-dihydro-3H-benzo [b][1,4]diazepin-2-yl]-benzonitrile] |
| > 250 °C | N#Cc1ccc(C2=Nc3ccc(-c4ccccc4F)cc3NC(=O)C2)s1 [Example 100, 5-[7-(2-Fluoro-phenyl)-4-oxo-4,5-dihydro-3H-benzo [b][1,4]diazepin-2-yl]-thiophene-2-carbonitrile] |
| 227 to 230 °C | N#Cc1cc(C2=Nc3ccc(C4CC4)cc3NC(=O)C2)ccn1 [Example 112, 4-(7-Cyclopropyl-4-oxo-4,5-dihydro-3H-benzo[b][1,4]diazepin-2-yl)-pyridine-2-carbonitrile] |
| 220 to 226 °C (dec.) | O=C1CC(c2cccc([N+](=O)[O-])c2)=Nc2ccc(-c3ccc(F)cc3)cc2N1 [Example 67, 8-(4-Fluoro-phenyl)-4-(3-nitro-phenyl)-1,3-dihydro-benzo [b][1,4]diazepin-2-one] |
| 92 °C | Cc1cn(-c2cccc(C3=Nc4ccc(-c5ccccc5F)cc4NC(=O)C3)c2)c(C)n1 [Example 101, 4-[3-(2,4-Dimethyl-imidazol-1-yl)-phenyl]-8-(2-fluoro-phenyl)-1,3-dihydro-benzo[b][1,4]diazepin-2-one] |
| 239 °C | CC(C)(C)OC(=O)N1CC=C(C#Cc2ccc3c(c2)NC(=O)CC(c2cccc(C#N)c2)=N3)CC1 [Example 139, 4-[2-(3-Cyano-phenyl)-4-oxo-4,5-dihydro-3H-benzo [b][1,4]diazepin-7-ylethynyl]-3,6-dihydro-2H-pyridine-1-carboxylic acid tert.-butyl ester] |
| 210 °C | Cc1cn(-c2cccc(C3=Nc4ccc(C#Cc5ccc(F)cc5)cc4NC(=O)C3)c2)cn1 [Example 78, 8-(4-Fluoro-phenylethynyl)-4-[3-(4-methyl-imidazol-1-yl)-phenyl]-1,3-dihydro-benzo [b][1,4]diazepin-2-one] |
| 266 to 268 °C | Cc1noc(-c2cccc(C3=Nc4ccc(-c5ccc(F)cc5)cc4NC(=O)C3)c2)n1 [Example 169, 8-(4-Fluoro-phenyl)-4-[3-(3-methyl-[1,2,4]oxadiazol-5-yl)-phenyl]-1,3-dihydro-benzo[b][1,4]diazepin-2-one] |
| 245 to 246 °C | N#Cc1cccc(C2=Nc3ccc(C#Cc4ccc(F)cc4)cc3NC(=O)C2)c1 [Example 145, 3-[7-(4-Fluoro-phenylethynyl)-4-oxo-4,5-dihydro-3H-benzo [b][1,4]diazepin-2-yl]-benzonitrile] |
| 134 °C (dec.) | Cc1cn(-c2cccc(C3=Nc4ccc(C#Cc5ccccc5)cc4NC(=O)C3)c2)c(C)n1 [Example 90, 4-[3-(2,4-Dimethyl-imidazol-1-yl)-phenyl]-8-phenylethynyl-1,3-dihydro-benzo[b][1,4]diazepin-2-one] |
| 225 to 231 °C | O=C1CC(c2cccc(-n3ccnc3)c2)=Nc2ccc(-c3ccc(OCc4ccccc4)nc3)cc2N1 [Example 74, 8-(6-Benzyloxy-pyridin-3-yl)-4-(3-imidazol-1-yl-phenyl)-1,3-dihydro-benzo [b][1,4]-diazepin-2-one] |
| 235 to 239 °C (dec.) | O=C1CC(c2cccc(-c3nc(CO)cs3)c2)=Nc2ccc(-c3ccc(F)cc3)cc2N1 [Example 156, 8-(4-Fluoro-phenyl)-4-[3-(4-hydroxymethyl-thiazol-2-yl)-phenyl]-1,3-dihydro-benzo[b][1,4]diazepin-2-one] |
| 259 to 261 °C (dec.) | Cc1csc(-c2cccc(C3=Nc4ccc(-c5ccc(F)cc5)cc4NC(=O)C3)c2)n1 [Example 152, 8-(4-Fluoro-phenyl)-4-[3-(4-methyl-thiazol-2-yl)-phenyl]-1,3-dihydro-benzo [b][1,4]diazepin-2-one] |
| 241 to 245 °C | O=C1CC(c2cccc(-n3cncn3)c2)=Nc2ccc(-c3ccc(F)cc3)cc2N1 [Example 64, 8-(4-Fluoro-phenyl)-4-(3-[1,2,4]triazol-1-yl-phenyl)-1,3-dihydro-benzo [b][1,4]diazepin-2-one] |
| 179 to 180 °C | O=C1CC(c2cccc(-n3cnnn3)c2)=Nc2ccc(-c3ccccc3F)cc2N1 [Example 88, 8-(2-Fluoro-phenyl)-4-(3-tetrazol-1-yl-phenyl)-1,3-dihydro-benzo [b][1,4]diazepin-2-one] |

The remaining lines, values behind:

| SMILES | melting point |
| --- | --- |
| N#Cc1cccc(C2=Nc3ccc(-c4ccc(Cl)cc4)cc3NC(=O)C2)c1 [Example 15, 3-[7-(4-Chloro-phenyl)-4-oxo-4,5-dihydro-3H-benzo[b][1,4]diazepin-2-yl]-benzonitrile] | 244 to 250 °C (dec.) |
| N#Cc1cccc(C2=Nc3ccc(C#Cc4ccccn4)cc3NC(=O)C2)c1 [Example 26, 3-(4-Oxo-7-pyridin-2-ylethynyl-4,5-dihydro-3H-benzo[b][1,4]diazepin-2-yl)-benzonitrile] | 229 to 231 °C (dec.) |
| C[Si](C)(C)C#Cc1cccc(C2=Nc3ccc(C#Cc4ccccc4)cc3NC(=O)C2)c1 | 169 to 171 °C (dec.) |
| N#Cc1cccc(C2=Nc3ccc(-c4ccc(-c5ccccc5)cc4)cc3NC(=O)C2)c1 [Example 54, 3-(7-Biphenyl-4-yl-4-oxo-4,5-dihydro-3H-benzo [b][1,4]diazepin-2-yl)-benzonitrile] | 251 to 253 °C |
| O=C1CC(c2cccc(I)c2)=Nc2ccc(C#Cc3ccccc3)cc2N1 [Example 11, 4-(3-Iodo-phenyl)-8-phenylethynyl-1,3-dihydro-benzo[b][1,4]diazepin-2-one] | 227 to 229 °C (dec.) |
| N#Cc1cccc(C2=Nc3ccc(C#Cc4ccc(OC(F)(F)F)cc4)cc3NC(=O)C2)c1 [Example 55, 3-[4-Oxo-7-(4-trifluoromethoxy-phenylethynyl)-4,5-dihydro-3H-benzo [b][1,4]diazepin-2-yl]-benzonitrile] | 239 to 241 °C |
| N#Cc1cccc(C2=Nc3ccc(-c4ccco4)cc3NC(=O)C2)c1 [Example 8, 3-(7-Furan-2-yl-4-oxo-4,5-dihydro-3H-benzo[b][1,4]diazepin-2-yl)-benzonitrile] | 205 to 210 °C (dec.) |
| N#Cc1cccc(C2=Nc3ccc(-c4cccnc4)cc3NC(=O)C2)c1 [Example 40, 3-(4-Oxo-7-pyridin-3-yl-4,5-dihydro-3H-benzo [b][1,4]diazepin-2-yl)-benzonitrile] | 210 to 214 °C (dec.) |
| Cc1ccc(C#Cc2ccc3c(c2)NC(=O)CC(c2cccc(C#N)c2)=N3)cc1 [Example 3, 3-(4-Oxo-7-p-tolylethynyl-4,5-dihydro-3H-benzo[b][1,4]diazepin-2-yl)-benzonitrile] | 236 to 239 °C (dec.) |
| O=C1CC(c2cccc(C(F)(F)F)c2)=Nc2ccc(-c3ccccc3)cc2N1 [Example 32, 8-Phenyl-4-(3-trifluoromethyl-phenyl)-1,3-dihydro-benzo [b][1,4]diazepin-2-one] | 210 °C (dec.) |
| N#Cc1cccc(C2=Nc3ccc(C#Cc4nccs4)cc3NC(=O)C2)c1 [Example 21, 3-(4-Oxo-7-thiazol-2-ylethynyl-4,5-dihydro-3H-benzo[b][1,4]diazepin-2-yl)-benzonitrile] | 230 °C (dec.) |
| N#Cc1cccc(C2=Nc3ccc(-c4ccccc4)cc3NC(=O)C2)c1 [Example 10, 3-(4-Oxo-7-phenyl-4,5-dihydro-3H-benzo[b][1,4]diazepin-2-yl)-benzonitrile] | 238 to 240 °C (dec.) |
| O=C1CC(c2cccc(-n3ccnc3)c2)=Nc2ccc(C#Cc3ccccc3F)cc2N1 [Example 63, 8-(2-Fluoro-phenylethynyl)-4-(3-imidazol-1-yl-phenyl)-1,3-dihydro-benzo [b][1,4]diazepin-2-one] | 201 to 203 °C |
| O=C1CC(c2cccs2)=Nc2ccc(I)cc2N1 [Example 25, 8-Iodo-4-thiophen-2-yl-1,3-dihydro-benzo[b][1,4]diazepin-2-one] | > 260 °C |
| CCc1ccc(-c2ccc3c(c2)NC(=O)CC(c2cccc(C#N)c2)=N3)cc1 [Example 9, 3-[7-(4-Ethyl-phenyl)-4-oxo-4,5-dihydro-3H-benzo[b][1,4]diazepin-2-yl]-benzonitrile] | 225 to 229 °C (dec.) |
| N#Cc1cccc(C2=Nc3ccc(-c4cccc5ccccc45)cc3NC(=O)C2)c1 [Example 20, 3-(7-Naphthalen-1-yl-4-oxo-4,5-dihydro-3H-benzo[b][1,4]diazepin-2-yl)-benzonitrile] | 240 to 245 °C (dec.) |
| CS(=O)(=O)N1CC=C(c2ccc3c(c2)NC(=O)CC(c2cccc(C#N)c2)=N3)CC1 [Example 46, 3-[7-(1-Methanesulfonyl-1,2,3,6-tetrahydro-pyridin-4-yl)-4-oxo-4,5-dihydro-3H-benzo [b][1,4]diazepin-2-yl]-benzonitrile] | 211 to 213 °C (dec.) |
| O=C1CC(c2cccc(Cl)c2)=Nc2ccc(C(=O)c3ccccc3)cc2N1 [Example 35, 8-Benzoyl-4-(3-chloro-phenyl)-1,3-dihydro-benzo [b][1,4]diazepin-2-one] | 199 to 202 °C (dec.) |
| Cc1cccc(-c2ccc3c(c2)NC(=O)CC(c2cccc(C#N)c2)=N3)c1 [Example 30, 3-(4-Oxo-7-m-tolyl-4,5-dihydro-3H-benzo [b][1,4]diazepin-2-yl)-benzonitrile] | 248 to 251 °C (dec.) |
